Measured values: publication PMC7714071, “Interaction of amyloid beta with humanin and acetylcholinesterase is modulated by ATP” (FEBS Open Bio, 2020)

System: AChE
Assay: ELISA, binding of biotinylated-Aβ40 to immobilised AChE
Set-up: species or system human
Excerpt: Most of the material used was purchased as we previously reported. Nitrocellulose membranes, PBS, ATP, recombinant human AChE (C1682, UniProt accession ID: C9JD78), streptavidin‐conjugated horseradish peroxidase (HRP) conjugate, Ponceau S solution, PMSF, and HS sodium salt from bovine kidney were purchased from Sigma‐Aldrich (St. Louis, MO, USA). Mouse IgG isotype control (mIgG), ultra 3,3′,5,5′‐tetramethylbenzidine (TMB)‐ELISA substrate solution, Halt Protease and Phosphatase Inhibitor Cocktail, HN polyclonal antibody (rabbit, PA1‐41610), and Nunc MaxiSorpTM 96‐well flat bottom plates were from Thermo Fisher (Waltham, MA, USA). […]
ELISAs were carried out as we previously reported. […] TBST was then used to wash the wells 4× before proceeding in one of two ways: (a) biotinylated samples were analyzed by adding 100 µL streptavidin–HRP conjugate in TBST (1 : 2500 dilution) to the samples followed by incubation for 3 h at RT on a shaker, or (b) samples without biotin were analyzed by adding 100 µL TBST containing the primary antibody as per the manufacturer's recommendation, incubating for 3 h at RT on a shaker, followed by washing the wells 4× with TBST. […] The reaction was stopped with 100 µL 2 M H2SO4 after incubating at RT for 0.5–15 min, resulting in a yellow color change, measured by absorbance at 450 nm. […] Statistical analysis was determined by the […]

Row | Compound | effect of ATP on affinity of AChE to Aβ40 (200 μM ATP, 30 min preincubation RT, pH 7.5, 10 mM MgCl2, three experiments in triplicate, Fig. 3A) | effect of HS on binding of Aβ40 to AChE (AChE 10 nM on wells, biotinylated-Aβ 1 μM, increasing HS, three independent assays, Fig. 2C)
1 | Nc1ncnc2c1ncn2[C@@H]1O[C@H](COP(=O)(O)OP(=O)(O)OP(=O)(O)O)[C@@H](O)[C@H]1O [ATP, Adenosine triphosphate] | reduced the affinity | –
2 | heparan sulfate [HS] | – | No effects
